Measured values from US4407798A, “Cephem compounds” (Fujisawa Pharmaceutical Co., Ltd., priority 1980, dated 1983).
Values after ≈ are worked out from the molar mass of the structure shown.

Test system: Escherichia coli 31
Test: In vitro antimicrobial activity, two-fold agar-plate dilution method (MIC)
Type: cell-based
Conditions: HI-agar, 37° C., 20 hours
Procedure: Now in order to show the utility of the object compounds (I), the test data on the in vitro antimicrobial activity of some representative compounds (I) of this invention are shown in the following. Test: In vitro Antimicrobial Activity.
In vitro Antimicrobial activity was determined by the two-fold agar-plate dilution method as described below.
One loopful of an overnight culture of each test strain in Tripticase-soy broth (approximately 10^8 viable cells per ml) was streaked on heart infusion agar (HI-agar) containing graded concentrations of antimicrobial agents, and the minimal inhibitory concentration (MIC) was expressed in term of μg/ml after incubation at 37° C. for 20 hours.

Q: With `Nc1ccnc(/C(=N/OC2CCCC2)C(=O)NC2C(=O)N3C(C(=O)[O-])=C(C[n+]4ccccc4)CSC23)n1` (stereo not drawn) [Compound A, 7-[2-Cyclopentyloxyimino-2-(4-aminopyrimidin-2-yl)acetamido]-3-(1-pyridiniomethyl)-3-cephem-4-carboxylate (syn isomer)] as the compound, how does the MIC read?
A: The MIC was 0.05 µg/mL (≈ 0.0955 µM).

Q: Which MIC does the source give for `CSCO/N=C(\C(=O)NC1C(=O)N2C(C(=O)[O-])=C(C[n+]3ccccc3)CSC12)c1nccc(N)n1` (stereo not drawn) [Compound B, 7-[2-Methylthiomethoxyimino-2-(4-aminopyrimidin-2-yl)acetamido]-3-(1-pyridiniomethyl)-3-cephem-4-carboxylate (syn isomer)] here?
A: Its MIC is 0.05 µg/mL (≈ 0.097 µM).

Q: For `CCO/N=C(\C(=O)NC1C(=O)N2C(C(=O)[O-])=C(C[n+]3ccccc3)CSC12)c1nccc(N)n1` (stereo not drawn) [Compound C, 7-[2-Ethoxyimino-2-(4-aminopyrimidin-2-yl)acetamido]-3-(1-pyridiniomethyl)-3-cephem-4-carboxylate (syn isomer)], which MIC is on record?
A: Its MIC is 0.05 µg/mL (≈ 0.103 µM).

Q: `C#CCO/N=C(\C(=O)NC1C(=O)N2C(C(=O)[O-])=C(C[n+]3ccccc3)CSC12)c1nccc(N)n1` (stereo not drawn) [Compound D, 7-[2-Propargyloxyimino-2-(4-aminopyrimidin-2-yl)acetamido]-3-(1-pyridiniomethyl)-3-cephem-4-carboxylate (syn isomer)] was tested. Which MIC did it give?
A: Its MIC is 0.05 µg/mL (≈ 0.101 µM).
